Type in all cases: biochemical
The target of one experiment is T1, BTK-WT (Homo sapiens, UniProt Q06187).
T1 construct: purified from insect cells as a full-length construct containing an N-terminal 6X-His tag; His6 (N); made in house; host or cells: insect cells (baculovirus Sf21 in Method B)
As to the kind of experiment: Btk in vitro inhibitory activity (one of Method A TR-FRET, Method B electrophoretic mobility shift, Method C radiometric filter binding). The conditions noted are these: read-out: IC50 BTK-WT. For orientation: In EMSA bound probe runs differently from free probe, usually more slowly.

The target in another experiment is LCK (Homo sapiens, UniProt P06239). Description: Inhibition of a panel of kinases, in vitro HotSpot kinase assay: LCK. To be noted: read-out: IC50 LCK.
The target in another experiment is EGFR (Homo sapiens, UniProt P00533). Description: Inhibition of a panel of kinases, in vitro HotSpot kinase assay: EGFR. Here is the method: (§1) The degree of inhibition of a panel of kinases is determined using the in vitro HotSpot kinase assay (purified enzymes, ^33P-ATP, an appropriate substrate and 1 μM ATP).
The next experiment concerns the target SRC (Homo sapiens, UniProt P12931). As to the kind of experiment: Inhibition of a panel of kinases, in vitro HotSpot kinase assay: SRC. Here is the method: as §1
A further experiment concerns the target T2, TEC (Homo sapiens, UniProt P42680).
T2 sequence (P42680 1-631): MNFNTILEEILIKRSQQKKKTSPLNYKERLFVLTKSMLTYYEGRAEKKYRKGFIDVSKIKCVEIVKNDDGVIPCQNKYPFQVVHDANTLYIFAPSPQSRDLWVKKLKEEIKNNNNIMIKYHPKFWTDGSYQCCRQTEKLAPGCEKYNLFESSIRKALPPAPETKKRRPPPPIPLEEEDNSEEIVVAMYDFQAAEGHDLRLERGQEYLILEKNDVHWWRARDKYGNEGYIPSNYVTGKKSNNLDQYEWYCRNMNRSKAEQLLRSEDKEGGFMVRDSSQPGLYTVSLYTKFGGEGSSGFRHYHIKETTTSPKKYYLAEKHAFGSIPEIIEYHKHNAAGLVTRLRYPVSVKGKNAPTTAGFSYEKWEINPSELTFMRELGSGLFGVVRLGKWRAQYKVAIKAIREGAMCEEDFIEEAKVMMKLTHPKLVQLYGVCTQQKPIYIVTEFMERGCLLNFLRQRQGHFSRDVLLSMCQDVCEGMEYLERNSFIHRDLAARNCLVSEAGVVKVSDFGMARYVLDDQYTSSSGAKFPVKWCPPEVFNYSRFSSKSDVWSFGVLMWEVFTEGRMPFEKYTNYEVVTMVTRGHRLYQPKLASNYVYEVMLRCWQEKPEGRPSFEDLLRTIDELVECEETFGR
As to the kind of experiment: Inhibition of a panel of kinases, in vitro HotSpot kinase assay: TEC. Here is the method: as §1

Where [1] appears, read: D-compounds panel data, 1 μM ATP.

IC50 data for 14 compounds are collected here from patent publication US20210070748A1, “INHIBITORS OF BRUTONS TYROSINE KINASE” (Pharmacyclics LLC, priority 2015, published 2021).

Read-outs that look alike come from different tables or passages of the source.

SRC, sequence (P12931 whole entry): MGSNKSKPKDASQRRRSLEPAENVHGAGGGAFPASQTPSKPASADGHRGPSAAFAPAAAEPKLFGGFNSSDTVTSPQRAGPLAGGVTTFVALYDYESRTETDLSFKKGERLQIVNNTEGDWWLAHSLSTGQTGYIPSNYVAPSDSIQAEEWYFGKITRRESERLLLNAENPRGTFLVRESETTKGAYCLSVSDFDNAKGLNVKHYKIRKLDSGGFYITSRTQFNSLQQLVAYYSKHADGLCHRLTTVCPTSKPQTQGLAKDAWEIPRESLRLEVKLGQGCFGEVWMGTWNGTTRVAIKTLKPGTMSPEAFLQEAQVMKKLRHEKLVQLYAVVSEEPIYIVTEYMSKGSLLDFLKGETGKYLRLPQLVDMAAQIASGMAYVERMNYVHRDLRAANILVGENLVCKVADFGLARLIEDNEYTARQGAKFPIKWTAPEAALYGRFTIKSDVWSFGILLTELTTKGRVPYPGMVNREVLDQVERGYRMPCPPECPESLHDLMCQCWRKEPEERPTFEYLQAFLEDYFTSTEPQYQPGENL
LCK, sequence (P06239 whole entry): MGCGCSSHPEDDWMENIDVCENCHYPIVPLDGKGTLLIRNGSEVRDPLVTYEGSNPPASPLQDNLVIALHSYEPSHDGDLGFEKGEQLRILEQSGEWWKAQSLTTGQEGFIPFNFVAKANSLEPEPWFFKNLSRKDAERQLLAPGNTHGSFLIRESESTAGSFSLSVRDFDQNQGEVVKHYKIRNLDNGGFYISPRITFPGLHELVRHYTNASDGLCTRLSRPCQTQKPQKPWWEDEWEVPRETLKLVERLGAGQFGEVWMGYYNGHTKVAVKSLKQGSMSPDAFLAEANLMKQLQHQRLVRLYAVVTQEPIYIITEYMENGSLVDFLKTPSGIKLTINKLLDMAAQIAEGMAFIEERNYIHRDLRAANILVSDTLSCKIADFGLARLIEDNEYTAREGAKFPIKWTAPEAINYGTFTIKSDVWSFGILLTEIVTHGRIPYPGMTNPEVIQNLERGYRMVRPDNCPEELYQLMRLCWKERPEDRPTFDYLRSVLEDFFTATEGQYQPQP
T1 sequence (Q06187 whole entry): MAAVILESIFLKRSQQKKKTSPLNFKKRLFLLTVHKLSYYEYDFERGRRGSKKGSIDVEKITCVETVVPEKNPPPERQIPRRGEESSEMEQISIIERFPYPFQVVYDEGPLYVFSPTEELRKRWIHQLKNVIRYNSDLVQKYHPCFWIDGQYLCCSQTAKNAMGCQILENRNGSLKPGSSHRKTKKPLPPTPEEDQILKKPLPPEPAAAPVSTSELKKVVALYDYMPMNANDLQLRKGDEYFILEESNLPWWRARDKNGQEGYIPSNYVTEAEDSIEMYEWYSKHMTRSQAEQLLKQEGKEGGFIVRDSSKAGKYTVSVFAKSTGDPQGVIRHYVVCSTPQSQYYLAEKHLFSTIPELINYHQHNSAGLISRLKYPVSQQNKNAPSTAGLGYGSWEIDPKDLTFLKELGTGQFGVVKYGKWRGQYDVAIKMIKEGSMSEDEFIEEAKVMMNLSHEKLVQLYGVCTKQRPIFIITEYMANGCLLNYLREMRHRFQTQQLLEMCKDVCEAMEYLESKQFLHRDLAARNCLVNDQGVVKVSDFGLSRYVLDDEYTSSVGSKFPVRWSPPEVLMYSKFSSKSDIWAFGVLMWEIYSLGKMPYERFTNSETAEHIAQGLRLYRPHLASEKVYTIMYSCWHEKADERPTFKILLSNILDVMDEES
EGFR, sequence (P00533 25-1210): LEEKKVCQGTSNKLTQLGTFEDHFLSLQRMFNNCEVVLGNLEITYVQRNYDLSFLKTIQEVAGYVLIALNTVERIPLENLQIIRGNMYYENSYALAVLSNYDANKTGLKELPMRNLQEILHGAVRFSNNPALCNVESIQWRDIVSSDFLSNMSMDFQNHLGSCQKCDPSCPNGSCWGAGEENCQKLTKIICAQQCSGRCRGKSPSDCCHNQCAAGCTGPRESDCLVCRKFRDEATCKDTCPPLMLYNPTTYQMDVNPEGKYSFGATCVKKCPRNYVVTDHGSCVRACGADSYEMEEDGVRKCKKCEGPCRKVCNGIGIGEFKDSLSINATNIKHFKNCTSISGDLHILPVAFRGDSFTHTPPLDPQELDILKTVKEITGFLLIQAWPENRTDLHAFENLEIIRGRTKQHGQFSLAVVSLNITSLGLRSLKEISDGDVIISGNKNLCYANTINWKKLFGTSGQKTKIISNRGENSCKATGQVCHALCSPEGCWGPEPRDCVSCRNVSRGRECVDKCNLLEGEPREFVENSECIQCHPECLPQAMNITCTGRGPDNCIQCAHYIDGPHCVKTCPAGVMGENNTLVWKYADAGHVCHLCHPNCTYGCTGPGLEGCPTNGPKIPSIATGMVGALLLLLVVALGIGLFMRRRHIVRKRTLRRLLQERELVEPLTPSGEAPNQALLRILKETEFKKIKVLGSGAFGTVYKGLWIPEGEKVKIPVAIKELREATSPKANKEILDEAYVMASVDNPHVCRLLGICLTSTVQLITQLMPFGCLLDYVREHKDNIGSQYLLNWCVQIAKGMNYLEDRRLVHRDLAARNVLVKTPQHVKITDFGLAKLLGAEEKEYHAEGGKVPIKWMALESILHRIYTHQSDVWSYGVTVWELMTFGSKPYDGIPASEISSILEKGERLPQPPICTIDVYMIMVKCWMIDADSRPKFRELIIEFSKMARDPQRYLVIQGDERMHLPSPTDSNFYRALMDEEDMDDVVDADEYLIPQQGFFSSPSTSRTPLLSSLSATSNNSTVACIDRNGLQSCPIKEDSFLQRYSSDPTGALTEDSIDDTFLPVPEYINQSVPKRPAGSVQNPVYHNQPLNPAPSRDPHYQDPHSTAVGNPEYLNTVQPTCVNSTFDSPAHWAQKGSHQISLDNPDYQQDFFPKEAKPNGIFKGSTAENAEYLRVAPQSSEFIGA

For the compound `CN(C)C(=O)N[C@H]1CCCN(c2cnc(C(N)=O)c(Nc3ccc(C4(C)CCN(C5CCCC5)CC4)cc3)n2)[C@H]1CO` [Example D-59, 3-{[4-(1-cyclopentyl-4-methylpiperidin-4-yl)phenyl]amino}-5-[(2R,3S)-3-[(dimethylcarbamoyl)amino]-2-(hydroxymethyl)piperidin-1-yl]pyrazine-2-carboxamide], the IC50 (usually the concentration needed to halve the response being measured) was 0.1 to 1 µM on BTK-WT (D-compounds panel data); 1 to 10 µM at LCK (setting [1]); 1 to 10 µM against EGFR (setting [1]); 1 to 10 µM against SRC (setting [1]); > 10 µM against TEC (setting [1]).

As for `C=CC(=O)N1CC[C@@H](N(C)c2cnc(C(N)=O)c(Nc3ccc(C4(C)CCN(C5CCCC5)CC4)cc3)n2)C1` [Example E-106, (R)-5-((1-acryloylpyrrolidin-3-yl)(methyl)amino)-3-(4-(1-cyclopentyl-4-methylpiperidin-4-yl)phenylamino)pyrazine-2-carboxamide], the 50% inhibitory concentration (IC50) on BTK-WT (E compounds, Table 17) was ≤ 0.01 µM; at LCK (E compounds, Table 17), 0.01 to 0.1 µM; against EGFR (E compounds, Table 17), ≤ 0.01 µM; on SRC (E compounds, Table 17), ≤ 0.01 µM; against TEC (E compounds, Table 17), ≤ 0.01 µM.

Turning to `C[C@@H]1[C@H](NC(=O)c2ccc(C3CC3)cc2F)CCCN1c1cnc(C(N)=O)c(Nc2ccc(N3CCOCC3)cc2)n1` [Example D-73, 5-[(2R,3R)-3-(4-cyclopropyl-2-fluorobenzamido)-2-methylpiperidin-1-yl]-3-{[4-(morpholin-4-yl)phenyl]amino}pyrazine-2-carboxamide], the concentration for half-maximal inhibition (IC50) was ≤ 0.01 µM at BTK-WT (D-compounds panel data); 1 to 10 µM at LCK (setting [1]); 1 to 10 µM on EGFR (setting [1]); 0.1 to 1 µM on SRC (setting [1]); 0.01 to 0.1 µM against TEC (setting [1]).

As to `C[C@@H]1[C@H](NC(=O)c2ccc(C3CC3)cc2F)CCCN1c1cnc(C(N)=O)c(Nc2cnn(C)c2)n1` [Example D-1, 5-[(2R,3R)-3-(4-cyclopropyl-2-fluorobenzamido)-2-methylpiperidin-1-yl]-3-[(1-methyl-1H-pyrazol-4-yl)amino]pyrazine-2-carboxamide], the IC50 was ≤ 0.01 µM on BTK-WT (D-compounds panel data); 1 to 10 µM on LCK (setting [1]); 1 to 10 µM at EGFR (setting [1]); 0.1 to 1 µM against SRC (setting [1]); 0.01 to 0.1 µM against TEC (setting [1]).

As to `C[C@@H]1[C@H](N2CCN(C)C2=O)CCCN1c1cnc(C(N)=O)c(Nc2cnn(C)c2)n1` [Example D-93, 3-[(1-methyl-1H-pyrazol-4-yl)amino]-5-[(2R,3R)-2-methyl-3-(3-methyl-2-oxoimidazolidin-1-yl)piperidin-1-yl]pyrazine-2-carboxamide], the IC50 was 0.01 to 0.1 µM on BTK-WT (D-compounds panel data); 0.1 to 1 µM on LCK (setting [1]); 1 to 10 µM against EGFR (setting [1]); 0.01 to 0.1 µM against SRC (setting [1]); 0.01 to 0.1 µM against TEC (setting [1]).

Regarding `C[C@@H]1[C@H](NC(=O)c2ccc(C3CC3)cc2)CCCN1c1cnc(C(N)=O)c(Nc2ccc(OC3CCN(C)CC3)cc2)n1` [Example D-89], the IC50 on BTK-WT (D-compounds panel data) is ≤ 0.01 µM; on LCK (setting [1]) it was 0.01 to 0.1 µM; on EGFR (setting [1]), 0.1 to 1 µM; against SRC (setting [1]) it was 0.01 to 0.1 µM; at TEC (setting [1]), 0.01 to 0.1 µM.

As for `CN(C)C(=O)N[C@H]1CCCN(c2cnc(C(N)=O)c(Nc3ccc4ncccc4c3)n2)[C@@H]1CO` (racemic) [Example D-64, trans 5-[3-[(dimethylcarbamoyl)amino]-2-(hydroxymethyl)piperidin-1-yl]-3-[(quinolin-6-yl)amino]pyrazine-2-carboxamide], the half-inhibitory concentration (IC50) at BTK-WT (D-compounds panel data) is 1 to 10 µM; on LCK (setting [1]), > 10 µM; against EGFR (setting [1]) it was > 10 µM; against SRC (setting [1]), > 10 µM; at TEC (setting [1]) it was 1 to 10 µM.

With `Cn1cc(Nc2nc(N3CCC[C@@H]4[C@H]3CCN4C(=O)c3ccccc3)cnc2C(N)=O)cn1` (racemic) [Example D-54, (racemic)-cis-5-{1-benzoyl-octahydro-1H-pyrrolo[3,2-b]pyridin-4-yl}-3-[(1-methyl-1H-pyrazol-4-yl)amino]pyrazine-2-carboxamide], the IC50 is 0.01 to 0.1 µM on BTK-WT (D-compounds panel data); 0.1 to 1 µM on LCK (setting [1]); > 10 µM against EGFR (setting [1]); 0.1 to 1 µM at SRC (setting [1]); 0.1 to 1 µM on TEC (setting [1]).

With `Cc1cc(Nc2nc(N3C[C@H](NC(=O)c4ccc(C5CC5)cc4F)CC[C@H]3C)cnc2C(N)=O)sn1` [Example D-79, 5-[(2R,5R)-5-(4-cyclopropyl-2-fluorobenzamido)-2-methylpiperidin-1-yl]-3-[(3-methyl-1,2-thiazol-5-yl)amino]pyrazine-2-carboxamide], the half-maximal inhibitory concentration (IC50) at BTK-WT (D-compounds panel data) is 0.1 to 1 µM; on LCK (setting [1]) it was 1 to 10 µM; against EGFR (setting [1]), 1 to 10 µM; on SRC (setting [1]) it was 1 to 10 µM; against TEC (setting [1]), > 10 µM.

As to `Cc1cc(Nc2nc(N3C[C@H](NC(=O)N(C)C)CC[C@@H]3C)cnc2C(N)=O)sn1` [Example D-74, 5-[(2S,5R)-5-[(dimethylcarbamoyl)amino]-2-methylpiperidin-1-yl]-3-[(3-methyl-1,2-thiazol-5-yl)amino]pyrazine-2-carboxamide], the IC50 is 0.1 to 1 µM at BTK-WT (D-compounds panel data); 0.1 to 1 µM at LCK (setting [1]); 0.1 to 1 µM on EGFR (setting [1]); 1 to 10 µM against SRC (setting [1]); 1 to 10 µM on TEC (setting [1]).

As for `NC(=O)c1ncc(N2CCC[C@@H](NC(=O)c3ccc(C4CC4)cc3F)C2)nc1Nc1cc(-c2ccccc2)ns1` [Example D-3, 5-[(3R)-3-(4-cyclopropyl-2-fluorobenzamido)piperidin-1-yl]-3-[(3-phenyl-1,2-thiazol-5-yl)amino]pyrazine-2-carboxamide], the half-maximal inhibitory concentration (IC50) at BTK-WT (D-compounds panel data), at LCK (setting [1]), at EGFR (setting [1]), on SRC (setting [1]) and at TEC (setting [1]) was > 10 µM in each case.

`C[C@@H]1[C@H](NC(=O)c2ccc(C3CC3)cc2)CCCN1c1cnc(C(N)=O)c(Nc2ccc(CN3CCOCC3)cc2)n1` [Example D-316, 5-[(2R,3R)-3-(4-cyclopropylbenzamido)-2-methylpiperidin-1-yl]-3-{[4-(morpholin-4-ylmethyl)phenyl]amino}pyrazine-2-carboxamide]: the IC50 at BTK-WT (D-compounds panel data) is ≤ 0.01 µM; at LCK (setting [1]), 0.01 to 0.1 µM; against EGFR (setting [1]), 0.1 to 1 µM; on SRC (setting [1]), 0.01 to 0.1 µM; on TEC (setting [1]), 0.01 to 0.1 µM.

In the case of `C[C@@H]1[C@H](NC(=O)c2ccc(-c3ncccn3)cc2)CCCN1c1cnc(C(N)=O)c(Nc2cnn(C)c2)n1` [Example D-85, 3-[(1-methyl-1H-pyrazol-4-yl)amino]-5-[(2R,3R)-2-methyl-3-[4-(pyrimidin-2-yl)benzamido]piperidin-1-yl]pyrazine-2-carboxamide], the half-inhibitory concentration (IC50) on BTK-WT (D-compounds panel data) is ≤ 0.01 µM; on LCK (setting [1]), 0.1 to 1 µM; against EGFR (setting [1]), 0.1 to 1 µM; at SRC (setting [1]), 0.1 to 1 µM; against TEC (setting [1]) it was ≤ 0.01 µM.

With `Cc1cc(Nc2nc(N3C[C@@H](NC(=O)c4ccc(C5CC5)cc4F)CC[C@@H]3C)cnc2C(N)=O)sn1` [Example D-78, 5-[(2S,5S)-5-(4-cyclopropyl-2-fluorobenzamido)-2-methylpiperidin-1-yl]-3-[(3-methyl-1,2-thiazol-5-yl)amino]pyrazine-2-carboxamide], the IC50 on BTK-WT (D-compounds panel data) lay in the range of 0.1 to 1 µM; on LCK (setting [1]), 0.1 to 1 µM; against EGFR (setting [1]), 0.1 to 1 µM; against SRC (setting [1]), 0.1 to 1 µM; against TEC (setting [1]) it was 1 to 10 µM.
